Laboratory results reported in patent US10017584B2, “6-deoxy-6-thioether-amino acid cyclodextrin derivative and preparation method thereof” (Hangzhou Adamerck Pharmlabs Inc., priority 2010, dated 2018).

How the values were obtained:
[1] = system: muscular relaxation induced by rocuronium bromide; assay: Reversal of rocuronium bromide induced muscular relaxation in anaesthetised Guinea pigs (TOF-Watch SX monitor); assay type: in vivo, Guinea pig
Source text: After pentobarbital sodium anesthesia in the abdominal cavity, the Guinea pigs are fixed on rat boards and connected to small animal ventilators after endotracheal intubation. Stimulating electrodes of a muscular relaxation monitor, TOF-Watch SX, are respectively connected to left post-femur and post-tibialis subcutis of the Guinea pig. Self-made tools are used to fix the left tibialis on a small platform while permitting the left hind paw to be able to move freely. A sensor is fixed on a palm surface of a left hind leg of the Guinea pig and a probe of skin temperature is fixed on a palm surface of a left front leg of the Guinea pig.

small mice = assay: Toxic reactions after intravenous tail injection in male small mice; details: intravenous injection at the tail, 200 mg/ml, 4000 mg/kg
Source text: Male small mice are processed with intravenous injection with compounds of the present invention at the tails.

[2] = guinea pig, in vivo, iv, 2 mg/kg
[3] = Guinea pig, compound 2 mg/kg given when TOFR disappears and T1 decreases more than 80%, after i.v. rocuronium bromide (twice ED90 dose)

Structure (SMILES)	T1 recovering to 25%/time [1, 2]	T1 recovering to 50%/time [1, 2]	TOF recovering to 50%/time [1, 2]	TOF recovering to 75%/time [1, 2]	result description (toxic reactions) (small mice)	T1 recovering to 25%/time [1, 3]	T1 recovering to 50%/time [1, 3]	T1 recovering to 75%/time [1, 3]	TOF recovering to 50%/time [1, 3]	TOF recovering to 75%/time [1, 3]
CC(=O)NC(CSC[C@H]1O[C@@H]2O[C@H]3[C@H](O)[C@@H](O)[C@@H](O[C@H]4[C@H](O)[C@@H](O)[C@@H](O[C@H]5[C@H](O)[C@@H](O)[C@@H](O[C@H]6[C@H](O)[C@@H](O)[C@@H](O[C@H]7[C@H](O)[C@@H](O)[C@@H](O[C@H]8[C@H](O)[C@@H](O)[C@@H](O[C@H]9[C@H](O)[C@@H](O)[C@@H](O[C@H]1[C@H](O)[C@H]2O)O[C@@H]9CSCC(NC(C)=O)C(=O)[O-])O[C@@H]8CSCC(NC(C)=O)C(=O)[O-])O[C@@H]7CSCC(NC(C)=O)C(=O)[O-])O[C@@H]6CSCC(NC(C)=O)C(=O)[O-])O[C@@H]5CSCC(NC(C)=O)C(=O)[O-])O[C@@H]4CSCC(NC(C)=O)C(=O)[O-])O[C@@H]3CSCC(NC(C)=O)C(=O)[O-])C(=O)[O-].[Na+].[Na+].[Na+].[Na+].[Na+].[Na+].[Na+].[Na+] (stereo partly drawn) [CD-9, 6-per-deoxy-6-per-(N-acetylglycinemethyl)thioether-γ-cyclodextrin sodium salt]	1.25 min	1.75 min	1.50 min	3.25 min	normal					
N[C@@H](CCSC[C@H]1O[C@@H]2O[C@H]3[C@H](O)[C@@H](O)[C@@H](O[C@H]4[C@H](O)[C@@H](O)[C@@H](O[C@H]5[C@H](O)[C@@H](O)[C@@H](O[C@H]6[C@H](O)[C@@H](O)[C@@H](O[C@H]7[C@H](O)[C@@H](O)[C@@H](O[C@H]8[C@H](O)[C@@H](O)[C@@H](O[C@H]9[C@H](O)[C@@H](O)[C@@H](O[C@H]1[C@H](O)[C@H]2O)O[C@@H]9CSCC[C@H](N)C(=O)[O-])O[C@@H]8CSCC[C@H](N)C(=O)[O-])O[C@@H]7CSCC[C@H](N)C(=O)[O-])O[C@@H]6CSCC[C@H](N)C(=O)[O-])O[C@@H]5CSCC[C@H](N)C(=O)[O-])O[C@@H]4CSCC[C@H](N)C(=O)[O-])O[C@@H]3CSCC[C@H](N)C(=O)[O-])C(=O)[O-].[Na+].[Na+].[Na+].[Na+].[Na+].[Na+].[Na+].[Na+] [CD-17, 6-per-deoxy-6-per-(α-L-amino acid ethyl)thioether-γ-cyclodextrin sodium salt]					normal	3.00 min	5.25 min	7.75 min	3.00 min	6.25 min
N[C@H](CSC[C@H]1O[C@@H]2O[C@H]3[C@H](O)[C@@H](O)[C@@H](O[C@H]4[C@H](O)[C@@H](O)[C@@H](O[C@H]5[C@H](O)[C@@H](O)[C@@H](O[C@H]6[C@H](O)[C@@H](O)[C@@H](O[C@H]7[C@H](O)[C@@H](O)[C@@H](O[C@H]8[C@H](O)[C@@H](O)[C@@H](O[C@H]1[C@H](O)[C@H]2O)O[C@@H]8CSC[C@@H](N)C(=O)[O-])O[C@@H]7CSC[C@@H](N)C(=O)[O-])O[C@@H]6CSC[C@@H](N)C(=O)[O-])O[C@@H]5CSC[C@@H](N)C(=O)[O-])O[C@@H]4CSC[C@@H](N)C(=O)[O-])O[C@@H]3CSC[C@@H](N)C(=O)[O-])C(=O)[O-].[Na+].[Na+].[Na+].[Na+].[Na+].[Na+].[Na+] [CD-25, 6-per-deoxy-6-per-(α-D-glycinemethyl)thioether-β-cyclodextrin sodium salt]					normal					
